Measurements as given in US20240010726A1, “LFA-1 SIGNALLING MEDIATOR FOR USE IN CANCER THERAPY” (Universität Basel, priority 2020, published 2024).

Legend:
[1] = tested on: murine WT and LFA-1^−/− CTLs; experiment: Glycolytic switch of murine WT and LFA-1−/− CTLs; assay type: cell-based; conditions: anti-CD3/28 Ab; 0 mM vs 1.2 mM Mg^2+
Procedure: (§1) FIG. 3: Magnesium regulates LFA-1 mediated T cell activation and cytotoxicity as well BiTE- and CAR T-cell functionality. (a) Glycolytic switch of murine WT and LFA-1^-/- CTLs upon injection of anti-CD3/28 Ab in medium containing 1.2 mM Mg^2+ and 0 mM Mg^2+, presented as quantification of summarized data with n=4 mice. (b) Calcium flux in WT and LFA-1^-/- Jurkat T cells stimulated with anti-CD3 Ab in 1.2 mM and 0 mM Mg^2+ medium, respectively. Cells were loaded with Fluo4, and signal intensity as recorded by plate reader, was normalized to unstimulated baseline values. […] Quantified results of n=3 mice with 3 technical replicates each. […] The effector to target cell ratio was 3:1. Results are quantified of n=3 mice with 3 technical replicates each. (e) Representative CD11a (LFA-1) surface expression on human naïve and EM CD8 T cells, PHA T cell blasts and REP T cells, assessed by flow cytometry. […] The effector to target cell ratio was 1:1. Data is presented as quantified results of n=5 healthy donors (f, g, h), n=3 healthy donors with 2 technical replicates each or n=1 healthy donor with 4 technical replicates (j). […] Data is presented as quantified results of n=1 healthy donor with 4 technical replicates. […] (p) Abundance of IFNγ in cell culture supernatants corresponding to the conditions depicted in (o) at 24 hours was determined by ELISA (n=8, 3 independent experiments). […]

[2] = tested on: anti-PSMA CAR T cells co-cultured with PC3-PIP; experiment: Cytokine release assay of anti-PSMA CAR T cells (IFNγ ELISA); assay type: cell-based, human; conditions: 24 h; 0 mM vs 0.6 mM Mg^2+
Procedure: as §1, with “LFA-1^−/−” for “LFA-1^-/-”

Compound: [Mg+2] [Mg^2+, Magnesium]
- Glycolytic switch of LFA-1^−/− CTLs [1]: independent from extracellular Mg^2+ concentrations
- Glycolytic switch of WT CTLs [1]: reduced glycolytic switching
- IFNγ release [2]: reduced inflammatory IFNγ release
